Test results from patent US12428377B2, “Sodium-hydrogen exchanger 3 inhibitor compounds” (Eli Lilly and Company, priority 2019, dated 2025).

Target: T1, human NHE3 (Homo sapiens, UniProt P48764)
T1 construct: myc; expressed in transfected cells
T1 sequence (P48764 26-834): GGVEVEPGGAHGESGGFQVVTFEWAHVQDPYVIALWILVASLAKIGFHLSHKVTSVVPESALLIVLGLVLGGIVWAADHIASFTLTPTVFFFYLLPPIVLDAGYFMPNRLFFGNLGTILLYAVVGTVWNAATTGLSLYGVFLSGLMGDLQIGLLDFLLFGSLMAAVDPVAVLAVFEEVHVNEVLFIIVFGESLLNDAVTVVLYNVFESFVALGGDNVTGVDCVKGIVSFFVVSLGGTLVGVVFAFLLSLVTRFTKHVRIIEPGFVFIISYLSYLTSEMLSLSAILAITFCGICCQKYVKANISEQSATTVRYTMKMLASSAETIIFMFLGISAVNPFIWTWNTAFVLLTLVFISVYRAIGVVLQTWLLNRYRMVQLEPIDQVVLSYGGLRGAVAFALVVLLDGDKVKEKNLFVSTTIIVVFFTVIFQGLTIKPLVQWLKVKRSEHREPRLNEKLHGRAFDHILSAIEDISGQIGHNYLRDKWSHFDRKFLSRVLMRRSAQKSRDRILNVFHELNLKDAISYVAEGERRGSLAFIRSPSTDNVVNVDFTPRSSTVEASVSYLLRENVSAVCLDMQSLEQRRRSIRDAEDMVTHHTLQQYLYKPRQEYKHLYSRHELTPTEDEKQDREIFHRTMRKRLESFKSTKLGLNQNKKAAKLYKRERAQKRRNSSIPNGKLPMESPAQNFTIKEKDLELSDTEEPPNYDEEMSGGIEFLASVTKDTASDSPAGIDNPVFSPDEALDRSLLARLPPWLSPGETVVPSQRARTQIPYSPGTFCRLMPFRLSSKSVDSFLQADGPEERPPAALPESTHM
Test: In vitro NHE3 inhibition activity (intracellular pH recovery, BCECF-AM, NHD C8 cells overexpressing human NHE3)
Type: cell-based
Settings: geometric mean of individual IC50
Text: In Vitro NHE3 Inhibition Activity
To create an NHE3 assay, cells selectively expressing NHE3 are generated by overexpressing human NHE3 in an endogenously NHE-deficient cell line. The NHE-deficient cell line is created by chemical-induced mutagenesis. After the mutagenesis, NHE-deficient cells are selected by subjecting lithium (Li) loaded cells to an acidic extracellular environment. Under these conditions, NHE exchanges intracellular Li^+ for extracellular protons, thus only NHE-deficient cells can avoid a toxic intracellular acidosis and survive.
An NHE-deficient cell line, NHD C8, is generated by mutagenesis and selection from the cell line Dede (ATCC® CCL-39™). The mutagenesis is induced by treating Dede CCL-39 cells with EMS (Sigma-Aldrich) in growth media at a final concentration of 500 μg/ml for 20 h. […]
To measure NHE activity, the intracellular pH of the cells is reduced by addition of NH4Cl. The sodium-dependent intracellular pH change is then measured by the intracellular pH-sensitive fluorescein dye, BCECF-AM (Molecular Probes-ThermoFisher Scientific). […] The plate is immediately read for fluorescent intensity at an excitation wavelength of 505 nm and emission wavelength of 550 nm. […]

SMILES: CN1Cc2c(Cl)cc(Cl)cc2[C@H](c2cccc(S(=O)(=O)NCCOCCOCCN/C(=N\C(N)=O)NCCCCN/C(=N/C(N)=O)NCCOCCOCCNS(=O)(=O)c3cccc([C@@H]4CN(C)Cc5c(Cl)cc(Cl)cc54)c3)c2)C1.Cl.Cl [Example 2, [[4-[[N′-Carbamoyl-N-[2-[2-[2-[[3-[(4S)-6,8-dichloro-2-methyl-3,4-dihydro-1H-isoquinolin-4-yl]phenyl]sulfonylamino]ethoxy]ethoxy]ethyl]carbamimidoyl]amino]butylamino]-[2-[2-[2-[[3-[(4S)-6,8-dichloro-2-methyl-3,4-dihydro-1H-isoquinolin-4-yl]phenyl]sulfonylamino]ethoxy]ethoxy]ethylamino]methylene]urea dihydrochloride]
- IC50: 5.76 nM
